Test results: article PMC10452181, “Synthesis and Biological Evaluation of Cyclobutane-Based β3 Integrin Antagonists: A Novel Approach to Targeting Integrins for Cancer Therapy” (Cancers, 2023)

How the values were obtained:
[1] = target: T1, αvβ3 (Homo sapiens, UniProt P05106+P06756); assay: Sk-Mel-2 cell adhesion to immobilised fibronectin (cell-binding assay, MTT readout); type: cell-based; details: Sk-Mel-2 adhesion to Fn, mean ± SD
T1 construct: endogenous in cells; host or cells: SK-Mel-2 melanoma cells
T1 sequence (P06756 31-889 limits assumed): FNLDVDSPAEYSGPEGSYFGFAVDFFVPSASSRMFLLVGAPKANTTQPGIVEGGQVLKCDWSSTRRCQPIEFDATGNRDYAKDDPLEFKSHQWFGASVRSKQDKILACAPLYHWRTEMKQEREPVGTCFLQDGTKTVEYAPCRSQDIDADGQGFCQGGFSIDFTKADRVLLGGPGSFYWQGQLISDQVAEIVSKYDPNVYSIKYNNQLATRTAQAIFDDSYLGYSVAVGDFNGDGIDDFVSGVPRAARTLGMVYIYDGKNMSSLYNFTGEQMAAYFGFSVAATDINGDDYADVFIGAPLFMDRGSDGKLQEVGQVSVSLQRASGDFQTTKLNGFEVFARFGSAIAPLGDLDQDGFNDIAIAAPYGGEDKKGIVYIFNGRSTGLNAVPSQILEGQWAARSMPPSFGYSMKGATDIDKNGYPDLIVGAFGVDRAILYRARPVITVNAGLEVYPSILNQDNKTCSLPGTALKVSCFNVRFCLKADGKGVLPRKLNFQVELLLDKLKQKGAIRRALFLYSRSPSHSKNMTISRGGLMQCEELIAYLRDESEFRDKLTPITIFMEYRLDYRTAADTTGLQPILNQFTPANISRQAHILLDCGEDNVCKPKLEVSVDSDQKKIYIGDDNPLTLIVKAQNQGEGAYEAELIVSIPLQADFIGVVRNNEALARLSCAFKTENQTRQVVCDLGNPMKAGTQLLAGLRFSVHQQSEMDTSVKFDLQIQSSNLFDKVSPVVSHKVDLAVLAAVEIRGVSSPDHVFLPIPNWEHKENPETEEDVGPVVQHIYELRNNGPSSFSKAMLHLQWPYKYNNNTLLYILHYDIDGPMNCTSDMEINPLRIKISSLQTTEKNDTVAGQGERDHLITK
T1 sequence (P06756 891-1048 partner limits assumed): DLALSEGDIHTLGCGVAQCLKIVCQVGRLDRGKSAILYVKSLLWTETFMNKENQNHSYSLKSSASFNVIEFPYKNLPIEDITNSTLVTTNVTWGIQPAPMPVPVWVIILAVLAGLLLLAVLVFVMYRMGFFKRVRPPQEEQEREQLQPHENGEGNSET
T1 sequence (P05106 27-788): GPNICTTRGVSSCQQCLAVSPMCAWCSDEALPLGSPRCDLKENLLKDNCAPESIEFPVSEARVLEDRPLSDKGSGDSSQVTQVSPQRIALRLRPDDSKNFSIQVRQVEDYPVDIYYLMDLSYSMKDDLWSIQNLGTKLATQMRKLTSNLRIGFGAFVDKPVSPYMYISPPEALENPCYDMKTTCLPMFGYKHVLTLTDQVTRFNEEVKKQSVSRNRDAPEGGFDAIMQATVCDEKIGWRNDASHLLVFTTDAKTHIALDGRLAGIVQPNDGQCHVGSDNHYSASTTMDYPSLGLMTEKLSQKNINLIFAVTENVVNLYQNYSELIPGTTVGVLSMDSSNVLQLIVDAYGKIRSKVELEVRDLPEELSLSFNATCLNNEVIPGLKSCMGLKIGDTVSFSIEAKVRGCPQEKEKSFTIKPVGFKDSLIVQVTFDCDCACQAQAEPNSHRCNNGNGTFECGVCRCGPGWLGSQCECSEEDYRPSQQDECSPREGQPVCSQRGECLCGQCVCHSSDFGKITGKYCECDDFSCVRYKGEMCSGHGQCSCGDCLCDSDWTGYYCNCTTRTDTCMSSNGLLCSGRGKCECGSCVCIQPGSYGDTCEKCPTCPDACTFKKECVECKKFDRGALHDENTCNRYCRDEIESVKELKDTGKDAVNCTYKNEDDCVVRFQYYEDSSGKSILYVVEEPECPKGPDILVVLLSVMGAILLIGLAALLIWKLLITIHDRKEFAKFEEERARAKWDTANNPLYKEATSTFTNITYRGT
Method: First, 96-well plates (Corning, VWR) were coated overnight at 4 °C with 0.5 μg/well fibronectin (Sigma). SK-Mel-2 cells were trypsinised, washed and resuspended in RPMI medium only at 10^5 cells/mL. Cells (100 µL/well) were treated with compound (DMSO final concentration 0.1%) at the indicated concentration for 4 hrs on a rotary shaker. Plates were washed (3 × PBS) and blocked with PBS/5% BSA for 2 hrs at 37 °C prior to adding the cells. Cells were incubated on the plates at 37 °C in a humidified chamber with 5% CO2 for 1 hr. The plates were washed 3× with PBS and a 200 µL/well RPMI medium containing 10% FCS added. The plates were incubated overnight at 37 °C as above. Finally, 0.5 mg/mL of 3-(4,5-dimethythiazol-2-yl)-2,5-diphenyl tetrazolium bromide (MTT) was added to each well and the plates incubated for a further 4 h. The medium was removed, and the insoluble formazan dissolved in 150 µL of DMSO. Absorbance was measured at 540 nm using a Thermo Multiskan EX (Thermofisher, UK)and Ascent Software (v2.6). Total binding was determined based on controls lacking any compounds (100% binding) in fibronectin-coated wells and uncoated wells blocked with BSA (0% binding) and corrected for background (no cells, fibronectin-coated).
As an initial test of anti-β3 activity, the ability of compounds to inhibit the adhesion of melanoma cells expressing high levels of αvβ3 and low levels of other RGD-binding integrins such as αvβ5 and α5β1 to immobilised fibronectin was evaluated.
Cells were seeded onto precoated plates in the presence or absence of putative antagonists and the number of adherent cells quantified colorimetrically.

[2] = test system: Sk-Mel-2; assay: in vitro; type: cell-based, human
Method: Before use in cell-based assays of integrin function, the effect of compounds on cell proliferation was tested using the MTT assay to avoid adhesion results being confounded by cell death (Supplementary Table S1). The effect of compounds on cell adhesion was then initially tested at a single, nontoxic concentration to identify active antagonists for further characterisation; those displaying a promising activity in the adhesion assay were tested at a wider range of concentrations to determine the IC50 (Table 2). […] Nevertheless, it is a cost-effective initial screening method. page 4: Table S1. Cytotoxicity of compounds on the cell lines used in the functional assays (measured by MTT assay). Cells (2000 cells/well for Sk-Mel-2; 1 x 10^4 cells/mL for M14) were incubated for 96 hours at 37 ° C in a total volume of 200 μL/well (180 μL medium + 20 μ L test compound solution). After 96 hours, the medium was replaced by fresh medium containing 0.5 mg/ml (end conc.) MTT per well, incubated for 4 h then the plate processed and read as described in the main text. […] ICT9053 41 naphthyridine 1 NHSO2Mes H Ester 52.6 ± 0.6 72.7 ± 9.8 ICT9065 42 naphthyridine 1 H H Ester >100 - ICT9079 43 naphthyridine 0 NHSO2Mes H Ester ~100 - ICT9061 44 naphthyridineT 1 NHSO2Mes H Ester 46.8 ± 10.7 - […] Ester 65.4 ± 11.1 >100 […] Ester 9.6 ± 5.7 >100 […] Ester >100 - […] Ester 54.6 ± 11.0 - […] Ester >5 3.3 ± 0.8 […] ICT9028 51 pyrimidine 2 NHSO2Ph H Acid >100 - ICT9031 52 pyrimidineT 1 NHSO2Mes H Acid >100 - ICT9090 53 pyrimidineT 2 NHSO2Mes H Acid >50 - ICT9029 54 pyrimidineT 2 NHSO2Ph H Acid >100 - ICT9063 55 naphthyridine 1 NHSO2Mes H Acid 61.7 ± 2.8 - […] Acid 45.5 ± 7.9 >100 […] 42.5 ± 1.8 >50 RGDS >50 - T trans configuration of cyclobutane sidechains.

[3] = target: T2, αIIbβ3 (Homo sapiens, UniProt P05106+P08514); assay: αIIbβ3/fibrinogen purified protein binding ELISA; details: mean ± SD; for IC50: read-out: IC50 (αIIbβ3/Fg)
T2 construct: purchased Sigma
T2 sequence (P08514 32-887 limits assumed): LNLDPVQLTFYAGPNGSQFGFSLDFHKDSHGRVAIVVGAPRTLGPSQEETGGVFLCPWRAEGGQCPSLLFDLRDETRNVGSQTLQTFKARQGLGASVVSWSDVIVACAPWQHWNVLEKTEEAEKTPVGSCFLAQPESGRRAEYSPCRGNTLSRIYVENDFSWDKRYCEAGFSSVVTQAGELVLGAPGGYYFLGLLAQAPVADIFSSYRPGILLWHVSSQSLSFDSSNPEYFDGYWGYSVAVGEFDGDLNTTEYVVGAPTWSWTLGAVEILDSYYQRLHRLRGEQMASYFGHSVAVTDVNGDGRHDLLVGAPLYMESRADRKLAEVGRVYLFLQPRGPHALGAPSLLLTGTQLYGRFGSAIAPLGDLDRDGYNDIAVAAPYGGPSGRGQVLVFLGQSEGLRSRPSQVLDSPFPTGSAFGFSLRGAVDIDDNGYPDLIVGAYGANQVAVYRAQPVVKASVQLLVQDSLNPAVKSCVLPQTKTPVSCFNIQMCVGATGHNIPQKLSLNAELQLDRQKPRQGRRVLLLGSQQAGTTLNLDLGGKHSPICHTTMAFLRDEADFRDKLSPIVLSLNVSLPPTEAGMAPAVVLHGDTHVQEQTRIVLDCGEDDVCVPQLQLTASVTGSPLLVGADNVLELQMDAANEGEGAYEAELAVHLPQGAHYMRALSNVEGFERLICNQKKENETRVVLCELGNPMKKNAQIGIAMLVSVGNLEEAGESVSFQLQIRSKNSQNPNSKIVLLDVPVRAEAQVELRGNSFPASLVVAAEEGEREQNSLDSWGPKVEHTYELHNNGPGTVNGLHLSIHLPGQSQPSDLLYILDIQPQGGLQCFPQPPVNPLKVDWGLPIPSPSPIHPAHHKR
T2 sequence (P08514 891-1039 partner limits assumed): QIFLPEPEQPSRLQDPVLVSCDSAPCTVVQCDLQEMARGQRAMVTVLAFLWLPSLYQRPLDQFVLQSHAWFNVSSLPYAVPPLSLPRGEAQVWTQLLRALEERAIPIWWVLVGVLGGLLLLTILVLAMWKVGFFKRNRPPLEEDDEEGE
T2 sequence (P05106 27-788): as the sequence (P05106 27-788) above
Method: ELISA assays were performed as previously described with minor modifications. Briefly, serial dilutions of compounds were prepared in dimethyl sulfoxide (DMSO). C8 Maxi Immuno modules (Fisher Scientific) were incubated overnight at 4 °C with 0.5 μg/well of fibrinogen (Sigma) in sterile phosphate buffered saline (PBS, 0.2 g/L KCl, 8.0 g/L NaCl, 0.2 KH2PO4, 1.15 g/L Na2HPO4, pH 7.4). All subsequent wash steps were performed using 25 mM Tris, pH 7.6, 150 mM NaCl, 1 mM MnCl2, 1 mg/mL BSA, and binding/inhibition was carried out in 25 mM Tris, pH 7.6, 150 mM NaCl, 1 mM MnCl2, 1 mM MgCl2, 1 mM CaCl2, 1 mg/mL BSA.
Wells were washed and blocked with a blocking solution (PBS, 0.1% Tween 20, 3% BSA) for 1 h at 37 °C. Compounds were added to the wells at indicated concentrations (final 0.5% DMSO) in the presence of 0.5 µg/well αIIbβ3 (Sigma) and incubated at room temp for 1 h. After 3 washes, primary anti-αIIb (1:200 dilution, Santa Cruz Biotech, Heidelberg, Germany) and antigoat–HRP (1:500 dilution, Dako, Agilent, Santa Clara, CA, USA) were added at room temp for 1 h. The wells were washed and incubated with 0.1 mg/mL tetra-methylbenzidine (Sigma) for 25 min and the reaction was stopped with 1N H2SO4 (100 μL/well). The absorbance was measured at 450 nm using a Multiscan Spectrum reader (Thermo Scientific, Thermofisher, UK) and SkanIT RE (v2.4.4.5) software. Results were plotted as percent binding vs. log concentration and IC50 values determined.

Row | Adhesion % Inhibition @ 5 μM [1] [%] | Adhesion % Inhibition @ 50 μM [1] [%] | IC50 [1] [µM] | IC50 [2] [µM] | % Inhibition (αIIbβ3/Fg) @ 50 μM [3] [%] | IC50 [3] [µM] | SMILES
1 | 4.5 ± 19.6 | 51 ± 9.0 | 50 ± 7 | 90.2 ± 4.3 | 91.2 ± 9.6 | 3.5 ± 1.9 | Cc1cc(C)c(S(=O)(=O)N[C@@H](CNC(=O)C2CC(CCNc3ncccn3)C2)C(=O)O)c(C)c1 (stereo partly drawn) [ICT9030 50, (S)-3-((1s,3r)-3-(2-(pyrimidin-2-ylamino)ethyl)cyclobutanecarboxamido)-2-(2,4,6-trimethylphenylsulfonamido)propanoic acid]
2 |  |  |  | > 100 |  |  | COC(=O)CCNC(=O)C1CC(CCc2ccc3cccnc3n2)C1 (stereo not shown) [ICT9065 42, Methyl 3-((1r,3s)-3-(2-(1,8-naphthyridin-2-yl)ethyl)cyclobutanecarboxamido)propanoate]
3 |  | 22.4 ± 29.3 |  | > 100 |  |  | COC(=O)CCNC(=O)[C@H]1C[C@@H](CCc2ccc3c(n2)NCCC3)C1 [ICT9066 47, Methyl 3-((1r,3s)-3-(2-(5,6,7,8-tetrahydro-1,8-naphthyridin-2-yl)ethyl)cyclobutanecarboxamido)propanoate]
4 | 39.4 ± 17.1 | 94.2 ± 4.1 | 13 ± 3 | 55.9 ± 4.9 | 33.5 ± 2.8 | 50 ± 5 | COC(=O)[C@H](CNC(=O)[C@H]1C[C@H](CCNc2ncccn2)C1)NS(=O)(=O)c1c(C)cc(C)cc1C [ICT9024 27, (S)-methyl 3-((1r,3s)-3-(2-(pyrimidin-2-ylamino)ethyl)cyclobutanecarboxamido)-2-(2,4,6-trimethylphenylsulfonamido)propanoate]
5 | 32.4 ± 16.1 |  |  | 46.8 ± 10.7 |  |  | COC(=O)[C@H](CNC(=O)C1CC(CCc2ccc3cccnc3n2)C1)NS(=O)(=O)c1c(C)cc(C)cc1C (stereo partly drawn) [ICT9061 44, (S)-methyl 3-((1s,3s)-3-(2-(1,8-naphthyridin-2-yl)ethyl)cyclobutanecarboxamido)-2-(2,4,6-trimethylphenylsulfonamido)propanoate]
6 |  |  |  | > 100 | 31.6 ± 10.7 |  | COC(=O)[C@H](CNC(=O)[C@H]1C[C@@H](CCCNc2ncccn2)C1)NS(=O)(=O)c1ccccc1 [ICT9026 29, (S)-methyl 2-(phenylsulfonamido)-3-((1s,3s)-3-(3-(pyrimidin-2-ylamino)propyl)cyclobutanecarboxamido)propanoate]
7 |  | 42.5 ± 14.1 | > 50 | > 100 | 100 ± 6 | 3.3 ± 3.3 | O=C(O)[C@H](CNC(=O)[C@H]1C[C@@H](CCCNc2ncccn2)C1)NS(=O)(=O)c1ccccc1 [ICT9029 54, (S)-2-(phenylsulfonamido)-3-((1s,3s)-3-(3-(pyrimidin-2-ylamino)propyl)cyclobutanecarboxamido)propanoic acid]
8 | 61.5 ± 11.1 |  |  | 54.6 ± 11 |  |  | COC(=O)[C@H](CNC(=O)C1CC(Cc2ccc3c(n2)NCCC3)C1)NS(=O)(=O)c1c(C)cc(C)cc1C (stereo partly drawn) [ICT9080 48, (S)-methyl 3-((1s,3r)-3-((5,6,7,8-tetrahydro-1,8-naphthyridin-2-yl)methyl)cyclobutanecarboxamido)-2-(2,4,6-trimethylphenylsulfonamido)propanoate]
9 |  | 31.8 ± 10.0 | > 50 | > 100 | 93.6 ± 2.2 | 7.8 ± 2.8 | O=C(O)[C@H](CNC(=O)[C@H]1C[C@H](CCCNc2ncccn2)C1)NS(=O)(=O)c1ccccc1 [ICT9028 51, (S)-2-(phenylsulfonamido)-3-((1r,3r)-3-(3-(pyrimidin-2-ylamino)propyl)cyclobutanecarboxamido)propanoic acid]
10 |  | 7.4 ± 15.1 |  | > 100 | 10.9 ± 15.4 |  | COC(=O)[C@H](CNC(=O)C1CC(CCCNc2ncccn2)C1)NS(=O)(=O)c1ccccc1 (stereo partly drawn) [ICT9023 23, (S)-methyl 2-(phenylsulfonamido)-3-((1r,3r)-3-(3-(pyrimidin-2-ylamino)propyl)cyclobutanecarboxamido)propanoate]
11 | 33.5 ± 26.2 |  |  | ~100 |  |  | COC(=O)[C@H](CNC(=O)C1CC(Cc2ccc3cccnc3n2)C1)NS(=O)(=O)c1c(C)cc(C)cc1C (stereo partly drawn) [ICT9079 43, (S)-methyl 3-((1s,3r)-3-((1,8-naphthyridin-2-yl)methyl)cyclobutanecarboxamido)-2-(2,4,6-trimethylphenylsulfonamido)propanoate]
12 | 48.7 ± 30.6 |  |  | 65.2 ± 1.3 |  |  | COC(=O)[C@H](CNC(=O)C1CC(CCc2ccc3cccnc3n2)C1)NS(=O)(=O)c1ccccc1 (stereo partly drawn) [ICT9054 40, (S)-methyl 3-((1r,3r)-3-(2-(1,8-naphthyridin-2-yl)ethyl)cyclobutanecarboxamido)-2-(phenylsulfonamido)propanoate]
13 | 0 ± 19.6 | 92.5 ± 8.1 | 38 ± 11 | 55.3 ± 1.6 | 35.0 ± 11.3 | > 100 | COC(=O)[C@H](CNC(=O)[C@H]1C[C@@H](CCCNc2ncccn2)C1)NS(=O)(=O)c1c(C)cc(C)cc1C [ICT9025 28, (S)-methyl 3-((1s,3s)-3-(3-(pyrimidin-2-ylamino)propyl)cyclobutanecarboxamido)-2-(2,4,6-trimethylphenylsulfonamido)propanoate]
14 |  | 22.2 ± 22.3 |  | > 100 |  |  | COC(=O)[C@@H](CNC(=O)[C@H]1C[C@@H](CCCNc2ncccn2)C1)NS(=O)(=O)c1ccccc1 [ICT9021 25, (R)-methyl 2-(phenylsulfonamido)-3-((1r,3s)-3-(3-(pyrimidin-2-ylamino)propyl)cyclobutanecarboxamido)propanoate]
